From PubChem BioAssay AID1259407 (Chemical Carcinogenesis Research Information System (CCRIS), 2018) come the findings set out here.

The test system of the series is CCRIS mutagenicity, Ames/micronucleus/aberration tests. In words: CCRIS mutagenicity studies.
Where [1] appears, read: Test System: AMES SALMONELLA TYPHIMURIUM, Strain/Indicator: TA98, Metabolic Activation: NONE, Method: STANDARD PLATE.
Setting [2] is: Test System: AMES SALMONELLA TYPHIMURIUM, Strain/Indicator: TA98, Metabolic Activation: RAT, LIVER, S-9, AROCLOR 1254, Method: STANDARD PLATE.
Setting [3] is: Test System: AMES SALMONELLA TYPHIMURIUM, Strain/Indicator: TA100, Metabolic Activation: NONE, Method: STANDARD PLATE.
Setting [4] is: Test System: AMES SALMONELLA TYPHIMURIUM, Strain/Indicator: TA100, Metabolic Activation: RAT, LIVER, S-9, AROCLOR 1254, Method: STANDARD PLATE.
[5] abbreviates: Test System: AMES SALMONELLA TYPHIMURIUM, Strain/Indicator: TA1535, Metabolic Activation: NONE, Method: STANDARD PLATE.
The mark [6] stands for this setting: Test System: AMES SALMONELLA TYPHIMURIUM, Strain/Indicator: TA1535, Metabolic Activation: RAT, LIVER, S-9, AROCLOR 1254, Method: STANDARD PLATE.
[7] abbreviates: Test System: AMES SALMONELLA TYPHIMURIUM, Strain/Indicator: TA1537, Metabolic Activation: NONE, Method: STANDARD PLATE.
[8] abbreviates: Test System: AMES SALMONELLA TYPHIMURIUM, Strain/Indicator: TA1537, Metabolic Activation: RAT, LIVER, S-9, AROCLOR 1254, Method: STANDARD PLATE.
Setting [9] is: Test System: AMES SALMONELLA TYPHIMURIUM, Strain/Indicator: TA1538, Metabolic Activation: NONE, Method: STANDARD PLATE.
The mark [10] stands for this setting: Test System: AMES SALMONELLA TYPHIMURIUM, Strain/Indicator: TA1538, Metabolic Activation: RAT, LIVER, S-9, AROCLOR 1254, Method: STANDARD PLATE.
[11] abbreviates: Test System: AMES SALMONELLA TYPHIMURIUM, Strain/Indicator: TA98, Metabolic Activation: HAMSTER, LIVER, S-9, AROCLOR 1254, Method: STANDARD PLATE.
The mark [12] stands for this setting: Test System: AMES SALMONELLA TYPHIMURIUM, Strain/Indicator: TA100, Metabolic Activation: HAMSTER, LIVER, S-9, AROCLOR 1254, Method: STANDARD PLATE.
[13] abbreviates: Test System: MOUSE LYMPHOMA, Strain/Indicator: L5178Y (TK+/TK-), Metabolic Activation: NONE, Method: SUSPENSION/PLATE.

Activity calls are given as the source filed them. The rule behind the calls is not given here.

On to `O=C1c2cccc(O)c2C(=O)c2c(O)cccc21`, for which the mutagenic call reads like this: under setting [1], “inactive; negative”; under setting [2], “inactive; negative”; under setting [3], “inactive; negative”; under setting [4], “inactive; negative”; (Test System: AMES SALMONELLA TYPHIMURIUM, Strain/Indicator: TA102, Metabolic Activation: NONE, Method: PREINCUBATION) “active; positive”; (Test System: AMES SALMONELLA TYPHIMURIUM, Strain/Indicator: TA102, Metabolic Activation: NONE, Method: STANDARD PLATE) “inactive; negative”. Besides, the mutagenic call is “active; positive” (Test System: AMES SALMONELLA TYPHIMURIUM, Strain/Indicator: TA102, Metabolic Activation: RAT LIVER S-9, AROCLOR 1254, Method: STANDARD PLATE); “active; positive” (Test System: AMES SALMONELLA TYPHIMURIUM, Strain/Indicator: TA102, Metabolic Activation: RAT, LIVER, S-9, AROCLOR 1254, Method: STANDARD PLATE); “active; positive” (Test System: AMES SALMONELLA TYPHIMURIUM, Strain/Indicator: TA102, Metabolic Activation: RAT, LIVER, S-9, PHENOBARBITONE AND BETA-NAPHTHOFLAVONE, Method: STANDARD PLATE); “active; positive” (Test System: AMES SALMONELLA TYPHIMURIUM, Strain/Indicator: TA102, Metabolic Activation: RAT, LIVER, S-9, Method: PREINCUBATION); “active; positive” (Test System: AMES SALMONELLA TYPHIMURIUM, Strain/Indicator: TA102, Metabolic Activation: S-9, Method: STANDARD PLATE); “inactive; negative” under setting [5]. Moreover, the mutagenic call runs as follows: under setting [6], “inactive; negative”; (Test System: AMES SALMONELLA TYPHIMURIUM, Strain/Indicator: TA1537, Metabolic Activation: NONE, Method: PREINCUBATION) “active; positive”; under setting [7], “active; positive”; under setting [8], “active; positive”; (Test System: AMES SALMONELLA TYPHIMURIUM, Strain/Indicator: TA1537, Metabolic Activation: RAT, LIVER, S-9, Method: PREINCUBATION) “active; positive”; under setting [9], “inactive; negative”. For the same compound, the mutagenic call is, setting by setting: under setting [10], “inactive; negative”; (Test System: AMES SALMONELLA TYPHIMURIUM, Strain/Indicator: TA2638, Metabolic Activation: S-9, Method: STANDARD PLATE) “active; positive”; (Test System: E. COLI, Strain/Indicator: WP2 (PKM101), Metabolic Activation: RAT, LIVER, S-9, PHENOBARBITONE AND BETA-NAPHTHOFLAVONE, Method: STANDARD PLATE) “inactive; negative”; (Test System: E. COLI, Strain/Indicator: WP2 (PKM101), Metabolic Activation: S-9, Method: STANDARD PLATE) “inactive; negative”; (Test System: E. COLI, Strain/Indicator: WP2 UVRA (PKM101), Metabolic Activation: RAT, LIVER, S-9, PHENOBARBITONE AND BETA-NAPHTHOFLAVONE, Method: STANDARD PLATE) “inactive; negative”; (Test System: E. COLI, Strain/Indicator: WP2 UVRA (PKM101), Metabolic Activation: S-9, Method: STANDARD PLATE) “inactive; negative”.

Turning to `Cc1c(/C=N/OCc2ccc(Cl)cc2)c2cc([N+](=O)[O-])ccc2n1Cc1ccccc1`, the mutagenic call is “inactive; negative” under setting [1]; “inactive; negative” (Test System: AMES SALMONELLA TYPHIMURIUM, Strain/Indicator: TA98, Metabolic Activation: RAT, LIVER, S-9, PHENOBARBITAL AND BETA-NAPHTHOFLAVONE, Method: STANDARD PLATE); “inactive; negative” under setting [3]; “inactive; negative” (Test System: AMES SALMONELLA TYPHIMURIUM, Strain/Indicator: TA100, Metabolic Activation: RAT, LIVER, S-9, PHENOBARBITAL AND BETA-NAPHTHOFLAVONE, Method: STANDARD PLATE).

For `NCCNc1cccc2ccccc12`, the mutagenic call runs as follows: (Test System: CHINESE HAMSTER OVARY, Strain/Indicator: CHO-K1-BH4 (HGPRT)/6-THIOGUANINE, Metabolic Activation: NONE) “inactive; negative”; (Test System: CHINESE HAMSTER OVARY, Strain/Indicator: CHO-K1-BH4 (HGPRT)/6-THIOGUANINE, Metabolic Activation: S-9) “inactive; negative”.

Regarding `Nc1ccc(F)cc1`, the mutagenic call is “active; positive” (End Point: IN VITRO MICRONUCLEUS, Test System: CHL/IU CELLS, Metabolic Activation: RAT, LIVER, S-9, PHENOBARBITAL AND 5,6-BENZOFLAVONE); “active; positive” under setting [11]; “inactive; negative” under setting [1]; “active; positive” under setting [2]; “active; positive” under setting [12]; “inactive; negative” under setting [3]. Also, the mutagenic call under setting [4] was “active; positive”; the mutagenic call (Test System: E. COLI, Strain/Indicator: WP2 UVRA, Metabolic Activation: NONE, Method: FLUCTUATION TEST) was “inactive; negative”; the mutagenic call under setting [13] is “active; positive. reevaluation of results: equivocal”; the mutagenic call (Test System: Mouse lymphoma, Strain/Indicator: L5178Y (tk+/tk-), Metabolic Activation: Rat, Liver, S-9, Aroclor 1254, Method: Suspension/plate) was “inconclusive (previous evaluation equivocal)”.

As for `CC(Cc1ccc(O)c(O)c1)C(C)Cc1ccc(O)c(O)c1` (configuration not stated), the mutagenic call by setting is: under setting [11], “inactive; negative”; under setting [1], “inactive; negative”; under setting [2], “inactive; negative”; under setting [12], “inactive; negative”; under setting [3], “inactive; negative”; under setting [4], “inactive; negative”. The mutagenic call by setting is: (Test System: AMES SALMONELLA TYPHIMURIUM, Strain/Indicator: TA1535, Metabolic Activation: HAMSTER, LIVER, S-9, AROCLOR 1254, Method: STANDARD PLATE) “inactive; negative”; under setting [5], “inactive; negative”; under setting [6], “inactive; negative”; (Test System: AMES SALMONELLA TYPHIMURIUM, Strain/Indicator: TA1537, Metabolic Activation: HAMSTER, LIVER, S-9, AROCLOR 1254, Method: STANDARD PLATE) “inactive; negative”; under setting [7], “inactive; negative”; under setting [8], “inactive; negative”. In addition, the mutagenic call is “inactive; negative” (Test System: AMES SALMONELLA TYPHIMURIUM, Strain/Indicator: TA1538, Metabolic Activation: HAMSTER, LIVER, S-9, AROCLOR 1254, Method: STANDARD PLATE); “inactive; negative” under setting [9]; “inactive; negative” under setting [10]; “active; positive. reevaluation of results: positive” under setting [13]; “inactive; negative. reevaluation of results: negative” (Test System: MOUSE LYMPHOMA, Strain/Indicator: L5178Y (TK+/TK-), Metabolic Activation: RAT, LIVER, S-9, AROCLOR 1254, Method: SUSPENSION/PLATE).

Consider `C/C=C1/C[C@@H](C)[C@@](C)(O)C(=O)OC/C2=C/CN(C)CC[C@@H](OC1=O)C2=O`, for which the mutagenic call by setting is: (Test System: AMES SALMONELLA TYPHIMURIUM, Strain/Indicator: TA100, Metabolic Activation: HAMSTER, LIVER, S-9, PCB, Method: PREINCUBATION) “active; positive”; (Test System: AMES SALMONELLA TYPHIMURIUM, Strain/Indicator: TA100, Metabolic Activation: RAT, LIVER, S-9, PCB, Method: PREINCUBATION) “active; positive”; (Test System: UDS HAMSTER HEPATOCYTES, Strain/Indicator: THY INCORP, Metabolic Activation: NONE, Method: AUTORADIOGRAPHY) “active; positive”; (Test System: UDS MOUSE HEPATOCYTES, Strain/Indicator: THY INCORP, Metabolic Activation: NONE, Method: AUTORADIOGRAPHY) “active; positive”; (Test System: UDS RAT HEPATOCYTES, Strain/Indicator: THY INCORP, Metabolic Activation: NONE, Method: AUTORADIOGRAPHY) “active; positive”.
